Reference: patent US7649002B2, “(3,5-dimethylpiperidin-1yl)(4-phenylpyrrolidin-3-yl)methanone derivatives as MCR4 agonists” (Pfizer Inc, priority 2004, dated 2010)

Key:
human MCR4 receptor = molecular target: T1, human MCR4 receptor (Homo sapiens, UniProt P32245); experiment: MCR4 standard functional assay (Protocol C): cAMP AlphaScreen in HEK cells; format: cell-based; conditions: Table 5
T1 construct: expressed in transfected cells
Description: (§1) Stimulation of adenylate cyclase following receptor activation is a widely used measure of functional activity for a number of receptor systems. The functional assay to measure cyclic AMP (cAMP) utilises human embryonic kidney (HEK) cells that stably express the human melanocortin MCR1, MCR3 or MCR4 receptor. Activation of MCR1, MCR3 or MCR4 receptors stimulates adenylate cyclase, generating cAMP, which is measured using AlphaScreen™ (PerkinElmer assay kits.
(§2) The AlphaScreen™ cAMP assay kit consists of ‘donor beads’, ‘acceptor beads’, and biotinylated cAMP which links the different beads together. Excitation of this linked complex at […] in the Fusion™-α microplate analyser results in light emission between […].
(§3) (i) MCR1. MCR3 and MCR4 Standard Functional Assay Methodology [Assay Protocol A, B AND C Respectively]
(§4) Determination of activity against the human MCR1, MCR3 and MCR4 receptor subtypes was carried out for compounds according to the present invention using three immortalised human embryonic kidney (HEK) cell lines that had been biologically engineered to express the human melanocortin MCR1, MCR3 or MCR4 receptor subtypes. These cell lines were engineered using protocols akin to those outlined by Gouarderes et al (Gouarderes, C., (2002) Neuroscience, 115(2); 349-361).
(§5) Such-compound-induced activation of these MCR1, MCR3 or MCR4 receptors lead to the stimulation of the cellular enzyme adenylate cyclase, which in turn lead to the cellular generation, and intra-cellular accumulation, of cyclic adenosine monophosphate (cAMP). […] Intracellular levels of cAMP were quantified using the commercially available AlphaScreen™ assay kits from PerkinElmer. A detailed assay protocol and an explanation of the concept underlying this kit is available through the PerkinElmer website (www.perkinelmer.com). The protocol listed below provides a summary this information.
(§6) The quantity of intracellular cAMP produced by compound-induced activation of the MCR1, MCR3 and MCR4 receptors in these three cell lines was measured using a Fusion™-α microplate analyser set to stimulate at a wavelength of 680 nm and to measure the energy emitted at wave lengths between […]. Compound-induced increases in MCR1, MCR3 or MCR4 receptor activation were subsequently quantified as a decrease in the quantity of light emitted at wavelengths between […]. Data analysis was subsequently performed using a curve-fitting program and the apparent potency of the test compound (expressed as an EC50 and defined as the effective compound concentration that elicited 50% of the maximum compound-induced response) extrapolated from the fitted curve.
Stimulation buffer (as per AlphaScreen™ protocol): HBSS supplemented with 0.5 mM IBMX, 5 mM HEPES, 0.1% (w/v) BSA and 10 mM MgCl2. […]

human MCR3 receptor = molecular target: T2, human MCR3 receptor (Homo sapiens, UniProt P41968); experiment: MCR3 standard functional assay (Protocol B): cAMP AlphaScreen in HEK cells; format: cell-based; conditions: Table 5; for Selectivity MCR3/MCR4: MCR4 by Protocol C; for EC50: Protocol B
T2 construct: expressed in transfected cells
Description: as §1, §2, §3, §4, §5, §6
Stimulation buffer (as per AlphaScreen™ protocol): HBSS supplemented with 0.5 mM IBMX, 5 mM HEPES, 0.1% (w/v) BSA and 10 mM MgCl2.
Lysis buffer (as per AlphaScreen™ protocol): 5 mM HEPES solution supplemented with 0.1% (w/v) BSA and 0.3% (v/v) Tween-20.
Detection mix (as per AlphaScreen™ protocol): Lysis buffer supplemented with the biotinylated cAMP (10 nM) and Donor beads (10 μg/ml) as supplied in the AlphaScreenT cAMP assay kit.
For the MCR1, MCR3 and MCR4 standard functional assay methodologies compounds were initially dissolved in DMSO to give a compound concentration of 4 mM and then further diluted for the assay in stimulation buffer to give actual concentrations 2-fold greater than that desired as the final assay concentration.
The three HEK cell lines, as detailed hereinbefore, expressing the human MCR1, MCR3 or MCR4 receptor subtypes were grown in T225 vent cap flasks containing 50 ml of growth medium (DMEM supplemented with 10% (v/v) FCS, 2 mM L-Glutamine, 25 mM HEPES and 1.0 mg/ml Geneticin) and maintained in a cell incubator at a temperature of 37° C. and in an environment containing 5% CO2. Cells were harvested when they reached 80-90% confluency by first removing the existing growth medium and then washing with PBS that had been pre-warmed to a temperature of 37° C. […]

T1 sequence (P32245 whole entry): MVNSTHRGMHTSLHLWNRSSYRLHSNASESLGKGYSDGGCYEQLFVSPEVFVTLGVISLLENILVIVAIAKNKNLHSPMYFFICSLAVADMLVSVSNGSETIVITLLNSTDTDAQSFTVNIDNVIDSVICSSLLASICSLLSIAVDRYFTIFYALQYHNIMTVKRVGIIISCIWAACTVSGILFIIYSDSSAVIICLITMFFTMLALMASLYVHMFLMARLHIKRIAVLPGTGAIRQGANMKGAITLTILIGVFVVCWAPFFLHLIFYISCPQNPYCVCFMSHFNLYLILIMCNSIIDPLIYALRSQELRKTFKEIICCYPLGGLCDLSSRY
T2 sequence (P41968 whole entry): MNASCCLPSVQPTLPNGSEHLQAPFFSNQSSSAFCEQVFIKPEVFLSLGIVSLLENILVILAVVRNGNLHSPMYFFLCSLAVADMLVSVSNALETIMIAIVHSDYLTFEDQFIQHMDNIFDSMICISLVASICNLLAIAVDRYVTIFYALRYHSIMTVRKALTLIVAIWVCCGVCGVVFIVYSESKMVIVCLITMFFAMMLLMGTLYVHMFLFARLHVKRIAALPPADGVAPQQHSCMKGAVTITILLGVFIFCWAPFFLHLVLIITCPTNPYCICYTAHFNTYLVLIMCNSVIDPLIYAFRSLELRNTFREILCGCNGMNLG

`CCN1C[C@@H](C(=O)N2C[C@@H](C)[C@](O)(C3CCCCC3)[C@@H](C)C2)[C@H](c2ccc(F)cc2F)C1` (relative stereo) [Example 2, (3R,4R,5S)-4-Cyclohexyl-1-{[(3S*,4R*)4-(2,4-difluorophenyl)-1-ethylpyrrolidin-3-yl]carbonyl}-3,5-dimethylpiperidin-4-ol] was tested, and the EC50 (human MCR4 receptor) was 68 nM, the “Selectivity MCR3/MCR4” value (human MCR3 receptor) was 123 and the EC50 (human MCR3 receptor) was 8380 nM.
In the case of `CCCC[C@@]1(O)[C@H](C)CN(C(=O)[C@@H]2CN(C(C)(C)C)C[C@H]2c2ccc(F)cc2F)C[C@@H]1C` [Example 3, (3R,4R,5S)-4-Butyl-1-{[(3S,4R)-1-tert-butyl-4-(2,4-difluorophenyl)pyrrolidin-3-yl]carbonyl}-3,5-dimethylpiperidin-4-ol], the EC50 (human MCR4 receptor) is reported as 44 nM, the “Selectivity MCR3/MCR4” value (human MCR3 receptor) is reported as 60 and the EC50 (human MCR3 receptor) is reported as 2620 nM.
Work on `Cc1ccc([C@@]2(O)[C@H](C)CN(C(=O)[C@@H]3CN(C(C)(C)C)C[C@H]3c3ccc(F)cc3F)C[C@@H]2C)cc1` [Example 4, (3R,4R,5S)-1-{[(3S,4R)-1-tert-Butyl-4-(24-difluorophenyl)pyrrolidin-3-yl]carbonyl}-3,5-dimethyl-4-(4-methylphenyl)piperidin-4-ol] yielded an EC50 (human MCR4 receptor) of 45 nM.
